# In patent US20260217706A1, “HETEROCYCLIC COMPOUNDS, PREPARATION METHOD THEREFOR AND USE THEREOF” (GUANGZHOU YUFAN NANTU BIOTECHNOLOGIES CO., LTD, priority 2023, published 2026):
# Target: CBL-B protein (Homo sapiens, UniProt Q13191)
# Experiment: CBL-B binding experiment (Streptavidin-Tb cryptate / Ligand L1 displacement)
# Conditions: 8 nM CBL-B protein, 25° C., 60 minutes; Ki=Relative IC50/2
# Description: The reaction system mainly includes 1× buffer, 20 mM HEPES pH 7.5, 150 mM NaCl, 0.01% Triton X-100, 0.5 mM TCEP, and 0.1% ug/ml BSA. The compound is continuously diluted with DMSO for 10 concentration points, and 150 nL is transferred to the experimental plate. The experimental reaction begins after adding 8 nM of CBL-B protein and the reaction is carried out at 25° C. for 60 minutes. […] After an additional 60 minutes of incubation at room temperature, the experimental plate is read using an EnVision plate. The luminescence signal values were converted to percentage inhibition rates. Inhibition %=(Sample value−Maximum value)/(Minimum value−Maximum value)×100. The minimum value refers to the measured value in the wells without CBL-B protein but with DMSO and Ligand, while the maximum value refers to the measured value in the wells with DMSO, CBL-B protein, and Ligand. The IC50 values are calculated by XLFit (version 5.3.1.3) in Excel. Equation: Y=Bottom+(Top−Bottom)/(1+(IC50/X)^HillSlope); Ki=Relative IC50/2.
# Sequence of CBL-B protein (Q13191 whole entry): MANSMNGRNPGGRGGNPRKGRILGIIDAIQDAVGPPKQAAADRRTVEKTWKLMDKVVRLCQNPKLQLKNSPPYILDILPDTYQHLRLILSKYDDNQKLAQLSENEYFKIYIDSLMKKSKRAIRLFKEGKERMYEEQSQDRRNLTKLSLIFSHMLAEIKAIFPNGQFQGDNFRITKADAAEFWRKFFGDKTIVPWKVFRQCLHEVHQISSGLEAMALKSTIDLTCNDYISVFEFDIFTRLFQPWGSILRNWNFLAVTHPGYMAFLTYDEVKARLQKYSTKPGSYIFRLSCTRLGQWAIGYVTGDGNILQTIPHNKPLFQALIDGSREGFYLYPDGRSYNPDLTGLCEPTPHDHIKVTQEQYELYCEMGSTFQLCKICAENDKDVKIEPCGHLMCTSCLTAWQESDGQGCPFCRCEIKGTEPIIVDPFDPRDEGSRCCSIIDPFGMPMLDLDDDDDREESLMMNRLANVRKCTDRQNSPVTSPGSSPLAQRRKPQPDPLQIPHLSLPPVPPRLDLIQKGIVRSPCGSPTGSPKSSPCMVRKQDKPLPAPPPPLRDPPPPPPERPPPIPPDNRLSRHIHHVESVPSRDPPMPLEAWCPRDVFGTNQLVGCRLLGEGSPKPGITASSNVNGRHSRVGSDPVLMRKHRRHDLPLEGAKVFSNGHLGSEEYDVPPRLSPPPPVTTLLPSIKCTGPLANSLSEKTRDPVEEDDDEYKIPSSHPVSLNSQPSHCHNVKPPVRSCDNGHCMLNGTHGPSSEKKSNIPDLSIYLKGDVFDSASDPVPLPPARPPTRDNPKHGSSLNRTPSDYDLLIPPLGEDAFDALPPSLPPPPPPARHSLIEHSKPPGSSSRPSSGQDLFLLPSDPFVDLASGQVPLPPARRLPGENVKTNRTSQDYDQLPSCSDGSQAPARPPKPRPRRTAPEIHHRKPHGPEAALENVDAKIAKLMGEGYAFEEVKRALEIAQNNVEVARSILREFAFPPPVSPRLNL
row,SMILES,Ki [nM]
1,"C[C@H]1CCCN(Cc2cc3ccn(-c4cccc(C5(Cc6nncn6C)COC5)c4)c(=O)c3[nH]2)C1 [Compound T001, (S)-6-(3-(3-((4-methyl-4H-1,2,4-triazol-3-yl)methyl)oxetan-3-yl)phenyl)-2-((3-methylpiperidin-1-yl)methyl)-1,6-dihydro-7H-pyrrolo[2,3-c]pyridin-7-one]",< 50
2,"Cc1cn(-c2cccc(C3(Cc4nncn4C)COC3)c2)c(=O)c2[nH]c(CN3CCC[C@H](C)C3)cc12 [Compound T003, 4-methyl-2-[[(3S)-3-methyl-1-piperidyl]methyl]-6-[3-[3-[(4-methyl-1,2,4-triazol-3-yl)methyl]oxetan-3-yl]phenyl]-1H-pyrrolo[2,3-c]pyridin-7-one]",< 50
3,"C=Cc1cn(-c2cccc([C@]3(c4nncn4C)C[C@@H](C)C3)c2)c(=O)c2[nH]c(CN3CCC[C@H](C)C3)cc12 [Compound T004, 6-(3-((1s,3R)-3-methyl-1-(4-methyl-4H-1,2,4-triazol-3-yl)cyclobutyl)phenyl)-2-(((S)-3-methylpiperidin-1-yl)methyl)-4-vinyl-1,6-dihydro-7H-pyrrolo[2,3-c]pyridin-7-one]",< 50
4,"Cn1cnnc1CC1(c2cccc(-n3cc(C4CC4)c4cc(CN5CCCCC5)[nH]c4c3=O)c2)COC1 [Compound T006, 4-cyclopropyl-6-[3-[3-[(4-methyl-1,2,4-triazol-3-yl)methyl]oxetan-3-yl]phenyl]-2-(1-piperidylmethyl)-1H-pyrrolo[2,3-c]pyridin-7-one]",< 50
5,"C[C@H]1CCCN(Cc2cc3c(C4CC4)cn(-c4cccc([C@H](c5nncn5C)C5CCC5)c4)c(=O)c3[nH]2)C1 [Compound T012, 6-(3-((R)-cyclobutyl(4-methyl-4H-1,2,4-triazol-3-yl)methyl)phenyl)-4-cyclopropyl-2-(((S)-3-methylpiperidin-1-yl)methyl)-1,6-dihydro-7H-pyrrolo[2,3-c]pyridin-7-one]",< 50
6,"CC(C)c1cn(-c2cccc(C3(Cc4nncn4C)COC3)c2)c(=O)c2[nH]c(CN3CCC[C@H](C)C3)cc12 [Compound T022, 4-isopropyl-2-[[(3S)-3-methyl-1-piperidyl]methyl]-6-[3-[3-[(4-methyl-1,2,4-triazol-3-yl)methyl]oxetan-3-yl]phenyl]-1H-pyrrolo[2,3-c]pyridin-7-one]",< 50

# Next, values leading:
row,Ki [nM],SMILES
1,< 50,"C[C@@H](NCc1cc2c(C(F)(F)F)cn(-c3cccc(C4(c5nncn5C)CCC4)c3)c(=O)c2[nH]1)C(C)(C)C (racemic) [Compound T044, 6-[3-[1-(4-methyl-1,2,4-triazol-3-yl)cyclobutyl]phenyl]-2-[[[rac-(1R)-1,2,2-trimethylpropyl]amino]methyl]-4-(trifluoromethyl)-1H-pyrrolo[2,3-c]pyridin-7-one]"
2,< 50,"Cn1cnnc1C1(c2cccc(-n3cc(C(F)(F)F)c4cc(CN5CCCC(C(F)F)C5)[nH]c4c3=O)c2)CCC1 (racemic) [Compound T113, 6-[3-[1-(4-methyl-1,2,4-triazol-3-yl)cyclobutyl]phenyl]-2-[[rac-(3R)-3-(difluoromethyl)-1-piperidyl]methyl]-4-(trifluoromethyl)-1H-pyrrolo[2,3-c]pyridin-7-one]"
3,< 50,"Cn1cnnc1C1(c2cccc(-n3cc(C(F)(F)F)c4cc(CN5CC[C@@H](O)C5)[nH]c4c3=O)c2)CCC1 [Compound T015, 2-[[(3R)-3-hydroxypyrrolidin-1-yl]methyl]-6-[3-[1-(4-methyl-1,2,4-triazol-3-yl)cyclobutyl]phenyl]-4-(trifluoromethyl)-1H-pyrrolo[2,3-c]pyridin-7-one]"
4,< 50,"Cn1cnnc1C1(c2cccc(-n3cc(C(F)(F)F)c4cc(CN5CC[C@H](O)C5)[nH]c4c3=O)c2)CCC1 [Compound T016, 2-[[(3S)-3-hydroxypyrrolidin-1-yl]methyl]-6-[3-[1-(4-methyl-1,2,4-triazol-3-yl)cyclobutyl]phenyl]-4-(trifluoromethyl)-1H-pyrrolo[2,3-c]pyridin-7-one]"
